Starred links: 1 amine or outer side, 2 acyl side, 3 side chain; linkers in the order of their positions; H or OH if unused. Non-standard residues stand in square brackets, D forms with d. Residues, ends and D or L forms follow the SMILES beside them. Groups on a side chain read outwards from the residue. *: point of attachment. C18 diacid = O=C(O)CCCCCCCCCCCCCCCCC(=O)*; γGlu = O=C(O)[C@H](CCC(=O)[*:2])N[*:1]; αMeF = C[C@](N)(Cc1ccccc1)C(=O)O; PEG2 = NCCOCCOCCC(=O)O; AEEA = NCCOCCOCC(=O)O; Aib = CC(C)(N)C(=O)O
Tests used:
[1] = target: human GLP-1 receptor (hGLP-1R) (Homo sapiens, UniProt P43220); assay: cAMP production (HTRF) in CHO cells expressing hGLP-1R; assay type: cell-based; design: expressed in transfected cells; settings: for % Relative Potency Ratio: % GLP-1R activity relative to GLP-1 / % GlucR activity relative to glucagon; for EC50: hGLP-1R EC50 (pM)
human GLP-1 receptor (hGLP-1R), sequence (P43220 24-463): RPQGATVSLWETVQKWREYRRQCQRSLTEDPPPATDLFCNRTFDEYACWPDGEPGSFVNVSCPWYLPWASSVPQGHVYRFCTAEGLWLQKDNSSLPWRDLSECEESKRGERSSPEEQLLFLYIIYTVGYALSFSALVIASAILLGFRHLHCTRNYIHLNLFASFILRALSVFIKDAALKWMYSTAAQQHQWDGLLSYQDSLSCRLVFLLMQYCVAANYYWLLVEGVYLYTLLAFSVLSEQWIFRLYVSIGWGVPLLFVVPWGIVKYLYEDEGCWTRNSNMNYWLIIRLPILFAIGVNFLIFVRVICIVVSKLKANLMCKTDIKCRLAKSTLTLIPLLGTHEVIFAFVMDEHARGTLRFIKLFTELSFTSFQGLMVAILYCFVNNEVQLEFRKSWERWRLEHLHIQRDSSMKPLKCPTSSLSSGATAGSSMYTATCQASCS
Outline: (§1)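 Read-out: HTRF cAMP (anti-cAMP cryptate donor, cAMP-d2 acceptor in conjugate/lysis buffer), converted to % Delta F and fitted by 4-parameter logistic for EC50. Cell densities were 1×10^5 cells/mL (hGLP-1R) or 2×10^5 cells/mL (hGCGR). Stimulation lasted 30 min at room temperature.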

[2] = target: human glucagon receptor (hGCGR) (Homo sapiens, UniProt P47871); assay: cAMP production (HTRF) in CHO cells expressing hGCGR; assay type: cell-based; design: expressed in transfected cells; settings: hGluc-R EC50 (pM), cAMP, CHO cells, 0.1% BSA, geometric mean
human glucagon receptor (hGCGR), sequence (P47871 26-477): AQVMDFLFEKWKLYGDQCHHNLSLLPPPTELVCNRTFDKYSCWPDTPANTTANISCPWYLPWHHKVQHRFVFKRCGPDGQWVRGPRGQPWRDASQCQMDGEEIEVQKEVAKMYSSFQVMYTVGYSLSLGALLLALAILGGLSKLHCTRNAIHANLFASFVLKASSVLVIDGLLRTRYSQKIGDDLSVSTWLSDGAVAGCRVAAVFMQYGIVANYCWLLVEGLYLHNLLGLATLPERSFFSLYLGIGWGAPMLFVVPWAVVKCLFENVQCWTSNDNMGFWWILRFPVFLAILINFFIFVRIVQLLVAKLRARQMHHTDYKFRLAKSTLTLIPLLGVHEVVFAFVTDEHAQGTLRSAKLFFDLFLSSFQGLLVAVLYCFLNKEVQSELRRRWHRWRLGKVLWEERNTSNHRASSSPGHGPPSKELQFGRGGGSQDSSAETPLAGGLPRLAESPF
Outline: as §1

SMILES	% Relative Potency Ratio [1]	EC50 [1]	EC50 [2]
CC[C@H](C)[C@H](NC(=O)[C@H](Cc1c[nH]c2ccccc12)NC(=O)[C@H](CCCCNC(=O)CC[C@H](NC(=O)CCCCCCCCCCCCCCCCCCC(=O)O)C(=O)O)NC(=O)[C@@H](NC(=O)[C@H](Cc1ccccc1)NC(=O)[C@H](CC(=O)O)NC(=O)[C@H](CCC(N)=O)NC(=O)[C@H](C)NC(=O)[C@H](C)NC(=O)[C@H](CCC(N)=O)NC(=O)[C@H](CO)NC(=O)[C@H](CC(=O)O)NC(=O)[C@H](CC(C)C)NC(=O)[C@](C)(Cc1ccccc1)NC(=O)[C@H](CCCCN)NC(=O)[C@H](CO)NC(=O)[C@@H](NC(=O)[C@H](CC(=O)O)NC(=O)[C@H](CO)NC(=O)[C@@H](NC(=O)[C@H](Cc1ccccc1)NC(=O)[C@@H](NC(=O)CNC(=O)[C@H](Cc1c[nH]cn1)NC(=O)C(C)(C)NC(=O)[C@@H](N)Cc1c[nH]cn1)[C@@H](C)O)[C@@H](C)O)C(C)C)C(C)C)C(=O)N[C@@H](C)C(=O)N[C@@H](CC(N)=O)C(=O)N[C@H](C(N)=O)[C@@H](C)O [Peptide 347]	0.2	4970 pM	597 pM
CC[C@H](C)[C@H](NC(=O)[C@H](Cc1c[nH]c2ccccc12)NC(=O)[C@H](CCCCNC(=O)COCCOCCNC(=O)COCCOCCNC(=O)CC[C@H](NC(=O)CCCCCCCCCCCCCCCCC(=O)O)C(=O)O)NC(=O)[C@@H](NC(=O)[C@H](Cc1ccccc1)NC(=O)[C@H](CC(=O)O)NC(=O)[C@H](CCC(N)=O)NC(=O)[C@H](C)NC(=O)[C@H](C)NC(=O)[C@H](CCC(N)=O)NC(=O)[C@H](CO)NC(=O)[C@H](CC(=O)O)NC(=O)[C@H](CC(C)C)NC(=O)[C@](C)(Cc1ccccc1)NC(=O)[C@H](CCCCN)NC(=O)[C@H](CO)NC(=O)[C@@H](NC(=O)[C@H](CC(=O)O)NC(=O)[C@H](CO)NC(=O)[C@@H](NC(=O)[C@](C)(Cc1ccccc1)NC(=O)[C@H](CO)NC(=O)CNC(=O)[C@H](CCC(N)=O)NC(=O)C(C)(C)NC(=O)[C@@H](N)Cc1c[nH]cn1)[C@@H](C)O)C(C)C)C(C)C)C(=O)N[C@@H](C)C(=O)N[C@@H](CC(N)=O)C(=O)N[C@H](C(N)=O)[C@@H](C)O [Peptide 348] (H-H[Aib]QGS[αMeF]TSDVSK[αMeF]LDSQAAQDFVK([AEEA-AEEA-γGlu-C18 diacid])WIANT-NH2)		70.1 pM	4110 pM
CC[C@H](C)[C@H](NC(=O)[C@H](Cc1c[nH]c2ccccc12)NC(=O)[C@H](CCCCNC(=O)COCCOCCNC(=O)COCCOCCNC(=O)CC[C@H](NC(=O)CCCCCCCCCCCCCCCCC(=O)O)C(=O)O)NC(=O)[C@@H](NC(=O)[C@H](Cc1ccccc1)NC(=O)[C@H](CC(=O)O)NC(=O)[C@H](CCC(N)=O)NC(=O)[C@H](C)NC(=O)[C@H](C)NC(=O)[C@H](CCC(N)=O)NC(=O)[C@H](CO)NC(=O)[C@H](CC(=O)O)NC(=O)[C@H](CC(C)C)NC(=O)[C@](C)(Cc1ccccc1)NC(=O)[C@H](CCCCN)NC(=O)[C@H](CO)NC(=O)[C@@H](NC(=O)[C@H](CC(=O)O)NC(=O)[C@H](CO)NC(=O)[C@@H](NC(=O)[C@](C)(Cc1ccccc1)NC(=O)[C@H](CO)NC(=O)CNC(=O)[C@H](Cc1c[nH]cn1)NC(=O)C(C)(C)NC(=O)[C@@H](N)Cc1c[nH]cn1)[C@@H](C)O)C(C)C)C(C)C)C(=O)N[C@@H](C)C(=O)N[C@@H](CC(N)=O)C(=O)N[C@H](C(=O)NCC(=O)NCC(N)=O)[C@@H](C)O [Peptide 350] (H-H[Aib]HGS[αMeF]TSDVSK[αMeF]LDSQAAQDFVK([AEEA-AEEA-γGlu-C18 diacid])WIANTGG-NH2; N-terminus assumed)	8.6	88.6 pM	384 pM
CC[C@H](C)[C@H](NC(=O)[C@H](Cc1c[nH]c2ccccc12)NC(=O)[C@H](CCCCNC(=O)CC[C@H](NC(=O)CCCCCCCCCCCCCCCCC(=O)O)C(=O)O)NC(=O)[C@@H](NC(=O)[C@H](Cc1ccccc1)NC(=O)[C@H](CC(=O)O)NC(=O)[C@H](CCC(N)=O)NC(=O)[C@H](C)NC(=O)[C@H](C)NC(=O)[C@H](CCC(N)=O)NC(=O)[C@H](CO)NC(=O)[C@H](CC(=O)O)NC(=O)[C@H](CC(C)C)NC(=O)[C@](C)(Cc1ccccc1)NC(=O)[C@H](CCCCN)NC(=O)[C@H](CO)NC(=O)[C@@H](NC(=O)[C@H](CC(=O)O)NC(=O)[C@H](CO)NC(=O)[C@@H](NC(=O)[C@](C)(Cc1ccccc1)NC(=O)[C@H](CO)NC(=O)CNC(=O)[C@H](Cc1c[nH]cn1)NC(=O)C(C)(C)NC(=O)[C@@H](N)Cc1c[nH]cn1)[C@@H](C)O)C(C)C)C(C)C)C(=O)N[C@@H](C)C(=O)N[C@@H](CC(N)=O)C(=O)N[C@H](C(N)=O)[C@@H](C)O [Peptide 351] (H-H[Aib]HGS[αMeF]TSDVSK[αMeF]LDSQAAQDFVK([γGlu-C18 diacid])WIANT-NH2)	0.7	605 pM	216 pM
CC[C@H](C)[C@H](NC(=O)[C@H](Cc1c[nH]c2ccccc12)NC(=O)[C@H](CCCCNC(=O)CCOCCOCCNC(=O)CCOCCOCCNC(=O)CC[C@H](NC(=O)CC[C@H](NC(=O)CCCCCCCCCCCCCCCCC(=O)O)C(=O)O)C(=O)O)NC(=O)[C@@H](NC(=O)[C@H](Cc1ccccc1)NC(=O)[C@H](CC(=O)O)NC(=O)[C@H](CCC(N)=O)NC(=O)[C@H](C)NC(=O)[C@H](C)NC(=O)[C@H](CCC(N)=O)NC(=O)[C@H](CO)NC(=O)[C@H](CC(=O)O)NC(=O)[C@H](CC(C)C)NC(=O)[C@](C)(Cc1ccccc1)NC(=O)[C@H](CCCCN)NC(=O)[C@H](CO)NC(=O)[C@@H](NC(=O)[C@H](CC(=O)O)NC(=O)[C@H](CO)NC(=O)[C@@H](NC(=O)[C@](C)(Cc1ccccc1)NC(=O)[C@H](CO)NC(=O)CNC(=O)[C@H](Cc1c[nH]cn1)NC(=O)C(C)(C)NC(=O)[C@@H](N)Cc1c[nH]cn1)[C@@H](C)O)C(C)C)C(C)C)C(=O)N[C@@H](C)C(=O)N[C@@H](CC(N)=O)C(=O)N[C@H](C(N)=O)[C@@H](C)O [Peptide 352] (H-H[Aib]HGS[αMeF]TSDVSK[αMeF]LDSQAAQDFVK([PEG2-PEG2-γGlu-γGlu-C18 diacid])WIANT-NH2; N-terminus assumed)	1.4	193 pM	139 pM
CC[C@H](C)[C@H](NC(=O)[C@H](Cc1c[nH]c2ccccc12)NC(=O)[C@H](CCCCNC(=O)CC[C@H](NC(=O)CC[C@H](NC(=O)CCOCCOCCNC(=O)CC[C@H](NC(=O)CC[C@H](NC(=O)CCCCCCCCCCCCCCCCC(=O)O)C(=O)O)C(=O)O)C(=O)O)C(=O)O)NC(=O)[C@@H](NC(=O)[C@H](Cc1ccccc1)NC(=O)[C@H](CC(=O)O)NC(=O)[C@H](CCC(N)=O)NC(=O)[C@H](C)NC(=O)[C@H](C)NC(=O)[C@H](CCC(N)=O)NC(=O)[C@H](CO)NC(=O)[C@H](CC(=O)O)NC(=O)[C@H](CC(C)C)NC(=O)[C@](C)(Cc1ccccc1)NC(=O)[C@H](CCCCN)NC(=O)[C@H](CO)NC(=O)[C@@H](NC(=O)[C@H](CC(=O)O)NC(=O)[C@H](CO)NC(=O)[C@@H](NC(=O)[C@](C)(Cc1ccccc1)NC(=O)[C@H](CO)NC(=O)CNC(=O)[C@H](Cc1c[nH]cn1)NC(=O)C(C)(C)NC(=O)[C@@H](N)Cc1c[nH]cn1)[C@@H](C)O)C(C)C)C(C)C)C(=O)N[C@@H](C)C(=O)N[C@@H](CC(N)=O)C(=O)N[C@H](C(N)=O)[C@@H](C)O [Peptide 353] (H-H[Aib]HGS[αMeF]TSDVSK[αMeF]LDSQAAQDFVK([γGlu-γGlu-PEG2-γGlu-γGlu-C18 diacid])WIANT-NH2; N-terminus assumed)	1.0	311 pM	163 pM

Reference: US20250353891A1 (MEDIMMUNE LIMITED, priority 2022, published 2025)
